Experimental data reported in patent publication US5407823A, “Polypeptides having a dopaminergic receptor activity, nucleic acids coding for these polypeptides and use of these polypeptides for the screening of substances active on these polypeptides” (priority 1990, dated 1995).
Like-named read-outs stand apart in the source and are kept apart here.

Tests used:
[1] = biological target: T1, D-3 receptor expressed in CHO cells (Rattus norvegicus, UniProt P19020); experiment: Inhibition of 125I-iodosulpride binding to membranes of transfected CHO cells (D-3); conditions: for Ratio Ki D-2/Ki D-3: D-2 and D-3 receptors expressed in CHO cells
T1 construct: expressed in transfected cells
Excerpt: (§1) As far as the measurement of the affinity of the agonists or antagonists towards the polypeptides of the invention is concerned, it may be made under the following conditions:
(§2) The terms agonists and antagonists refer to the actions of the medicines on the D-2 receptors.
(§3) The β2 adrenergic receptor is excised from pSV β2 -MDH by digestions with HindIII and EcoRI and replaced by a SmaI-EcoRI restriction fragment of the clone of the D-2A receptor by using a blunt-ended HindIII nucleotide adaptor leading to the plasmid pSV D-2. The vector needed to express the D-3 receptor is obtained by replacing the HindIII-BglII restriction fragment of pSV D-2 by a EcoRI-BglII restriction fragment of the clone RT-PCR B, by using a HindIII-EcoRI oligonucleotide adaptor leading to the plasmid pSV D-3. […] The stable transfectants are selected in a culture medium (Dulbecco's Modified Eagle medium) not containing hypoxanthine and thymidine.

[2] = biological target: T2, D-2 receptor expressed in CHO cells (Rattus norvegicus, UniProt P61169); experiment: Inhibition of 125I-iodosulpride binding to membranes of transfected CHO cells (D-2); conditions: for Kd: saturation kinetics at equilibrium, permanently transfected CHO cells
T2 construct: expressed in transfected cells
Excerpt: as §1, §2, §3

D-2 receptor = experiment: 7 OHDPAT-3H specific binding to membranes of CHO cells expressing the D-2 receptor; parameters: species or system rat; conditions: increasing concentrations of radioligand
[3] = competition with 125I-iodosulpride, CHO cell membranes, mean ± standard deviation, 2-3 experiments, read-out: Ki Value D-3 receptor
[4] = competition with 125I-iodosulpride, CHO cell membranes, mean ± standard deviation, 2-3 experiments, read-out: Ki Value D-2 receptor

T2 sequence (P61169 whole entry): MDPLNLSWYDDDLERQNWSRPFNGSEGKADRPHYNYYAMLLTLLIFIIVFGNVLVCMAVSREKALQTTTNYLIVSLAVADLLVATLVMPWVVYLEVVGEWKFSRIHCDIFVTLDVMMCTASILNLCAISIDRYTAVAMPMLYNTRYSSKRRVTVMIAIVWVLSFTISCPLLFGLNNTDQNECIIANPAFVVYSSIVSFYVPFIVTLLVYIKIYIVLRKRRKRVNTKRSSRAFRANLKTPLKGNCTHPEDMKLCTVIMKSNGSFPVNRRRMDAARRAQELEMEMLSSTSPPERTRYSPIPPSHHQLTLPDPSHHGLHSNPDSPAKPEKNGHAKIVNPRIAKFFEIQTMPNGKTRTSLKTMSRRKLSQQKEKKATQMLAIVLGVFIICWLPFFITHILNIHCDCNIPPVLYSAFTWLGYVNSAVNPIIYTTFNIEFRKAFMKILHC
T1 sequence (P19020 whole entry): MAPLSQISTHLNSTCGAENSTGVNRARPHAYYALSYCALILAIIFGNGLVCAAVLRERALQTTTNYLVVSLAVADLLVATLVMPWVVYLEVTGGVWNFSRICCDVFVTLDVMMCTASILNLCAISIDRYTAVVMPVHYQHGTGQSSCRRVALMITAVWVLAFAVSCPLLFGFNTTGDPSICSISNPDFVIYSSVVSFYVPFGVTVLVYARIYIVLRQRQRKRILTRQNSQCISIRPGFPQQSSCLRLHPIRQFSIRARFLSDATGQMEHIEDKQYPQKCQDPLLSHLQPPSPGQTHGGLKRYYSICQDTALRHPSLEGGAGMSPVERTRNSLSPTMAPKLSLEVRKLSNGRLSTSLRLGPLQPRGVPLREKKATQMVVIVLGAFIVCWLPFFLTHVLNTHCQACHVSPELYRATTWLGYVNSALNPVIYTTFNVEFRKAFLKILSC

Molecule	Ratio Ki D-2/Ki D-3 [1]	Ki [1, 3] [nM]	Comparison of affinities for D-2 and D-3 receptors (in words) [1]	further results
CC(C)C[C@H]1C(=O)N2CCC[C@H]2[C@]2(O)O[C@](NC(=O)[C@@H]3C=C4c5cccc6[nH]c(Br)c(c56)C[C@H]4N(C)C3)(C(C)C)C(=O)N12 [Bromocriptine]	0.7	7.4 ± 1.3		Ki [2, 4]: 5.3 ± 0.6 nM
CCCN[C@@H]1CCc2c(OC)cccc2[C@@H]1C [(+)AJ 76]	3.0	91 ± 5	somewhat but significantly higher affinities for the D-3 receptor than the D-2 receptor	Ki [2]: 270 ± 14 nM
CN1CCN(CCCN2c3ccccc3Sc3ccc(S(=O)(=O)N(C)C)cc32)CC1 [Thioproperazine]		1.7 ± 0.1		Ki [2, 4]: 0.21 ± 0.01 nM
CCN1CCC[C@H]1CNC(=O)c1c(O)c(Cl)cc(Cl)c1OC [Raclopride]		3.5 ± 0.3		
CN(C)C1CCc2cc(O)c(O)cc2C1 (stereo not drawn) [TL 99]			much less affinity for the D-3 receptor than for the D-2 receptor	
CCCN(CCC)C1CCc2ccc(O)cc2C1 (stereo not drawn) [7 OHDPAT-^3 H, 7-hydroxy N,N'-dipropylaminotetraline radiolabelled with tritium]				Binding to membranes of cells expressing the D-2 receptor (D-2 receptor): only very slightly
CCCN(CCC)[C@@H]1CCc2c(OC)cccc2[C@@H]1C [(+)UH 232]	4.4		somewhat but significantly higher affinities for the D-3 receptor than the D-2 receptor	Ki [1]: 9.2 ± 0.1 nM; Ki [2]: 40 ± 1 nM
NCCc1ccc(O)c(O)c1 [Dopamine]				Effect of Gpp(NH)p on displacement curve, D-2 receptor ([2]; presence of Gpp(NH)p): shifted to the right
CN1CCc2cccc3c2[C@H]1Cc1ccc(O)c(O)c1-3 [Apomorphine]				Ki ([1]; read-out: Ki Value D-3 receptor): 20 ± 3 nM
Iodosulpride	0.52			Kd ([1]; saturation kinetics at equilibrium, permanently transfected CHO cells): 1.2 ± 0.2 nM; Kd [2]: 0.61 ± 0.05 nM; Kd ([2]; listed as 125 I-iodosulpride): 0.6 nM
Oc1cc2c(cc1O)C(c1ccccc1)CNCC2 (stereo not drawn) [SKF 38393]				Ki [1]: 5000 nM
CCCN1C[C@H](CSC)C[C@@H]2c3cccc4[nH]cc(c34)C[C@H]21 [Pergolide]			much less affinity for the D-3 receptor than for the D-2 receptor	
